According to PubChem BioAssay AID1996:
Values after ≈ are worked out from the molar mass of the structure shown.

conditions: buffer; pH 7.4; 200.0 µM

Compound	solubility kinetic [µg/mL]
Nc1ccc2nc(NC(=O)C3CCCCC3)sc2c1	30.2 (≈ 110 µM)
Cn1c(SCc2c(F)cccc2Cl)nc2c(c1=O)SCC2	6.1 (≈ 17.8 µM)
Fc1ccccc1NC(=S)NC1CCCC1	35.2 (≈ 148 µM)
S=c1[nH]c2cc(Br)cnc2[nH]1	34.4 (≈ 150 µM)
COc1cc(NC(=O)COC(=O)C=C(C)C)c(C)cc1[N+](=O)[O-]	17.2 (≈ 53.4 µM)
S=C(NCc1ccc(Cl)cc1)NN1CCOCC1	> 42.9
CCOC(=O)C1(Cc2cccc(F)c2)CCN(C(=O)C2CCC2)CC1	> 52.1
C/C(=C/C#N)Nc1ccc(C)cc1	> 25.8
Nc1cc(=O)[nH]c(SCC(=O)Nc2ccc([N+](=O)[O-])cc2)n1	> 48.2
Nc1ccc(NC(=O)NC2CCCCC2)cc1[N+](=O)[O-]	1.6 (≈ 5.75 µM)
Cc1nc(-c2ccc(S(=O)(=O)NCc3ccccn3)s2)cs1	> 52.7
COc1ccc(OC)c(/C=C(\C)C(=O)c2c(C)cc(C)[nH]c2=O)c1	40.4 (≈ 123 µM)
CC1(C)OC(C)(C)/C(=C\c2ccccc2[N+](=O)[O-])C1=O	27.7 (≈ 101 µM)
COc1ccc(CC(=O)NC2CC2)cc1OC	> 35.3
Cc1ccn2c(=O)cc(C)nc2c1	> 26.1
Cc1nnc(Cn2cnc3c2c(=O)n(C)c(=O)n3C)o1	> 41.4
OC(CN1CCN(c2cccc(Cl)c2)CC1)c1ccc(F)cc1 (stereo not given)	12.2 (≈ 36.4 µM)
Cc1nc(SCc2ccc(C(=O)O)cc2)c2c(C)c(C)sc2n1	49.5 (≈ 144 µM)
Cc1ccc2nc(-c3cccnc3)c(Nc3ccccc3C)n2c1	2.2 (≈ 7 µM)
CCN1CCCC1CNS(=O)(=O)c1ccc(F)c(Cl)c1 (stereo not given)	44.2 (≈ 138 µM)
CCN(CC)S(=O)(=O)c1ccc(Cl)c(NC2=NCCCCC2)c1	32.9 (≈ 91.9 µM)
COc1ccc(SCC2CN(C)CCC2c2ccc(F)cc2)cc1.Cl (stereo not given)	32.5
CNC(=O)/C(C#N)=C/c1c(N2CCCCCC2)nc2c(C)cccn2c1=O	50.4 (≈ 138 µM)
COc1ccc(-c2nc3n(c(=O)c2C#N)CCS3)cc1OC	11.9 (≈ 37.7 µM)
CCOc1ccc(N=C2NC(=O)SC2CC(=O)OC)cc1 (stereo not given)	12.4 (≈ 40.2 µM)

Other lines, results leading:

solubility kinetic [µg/mL]	Compound
23 (≈ 89.4 µM)	CCOC(=O)c1cnc2[nH]c3ccccc3n2c1=O
2.4 (≈ 9.15 µM)	Cc1ccc(NC(=O)c2cccs2)cc1[N+](=O)[O-]
2.3 (≈ 5.89 µM)	COc1ccc(Br)c(C(=O)OCC(=O)N2CCc3ccccc32)c1
18.4 (≈ 71.2 µM)	Cc1ccc(OCc2ccccc2C)c([N+](=O)[O-])n1
18.5 (≈ 55.7 µM)	O=C(c1c(F)cccc1F)N1CCN=C1SCc1ccccc1
> 44.6	O=C(COC(=O)CCc1ccccc1)NCc1ccccc1
42.5 (≈ 121 µM)	O=C(CNC(=O)c1ccco1)NCC(=O)OCc1ccccc1Cl
< 0.6	O=C(NCCC1=CCCCC1)c1cc2ccccc2oc1=O
13.1 (≈ 36.9 µM)	Cc1ccc2c(COC(=O)CNC(=O)c3ccco3)cc(=O)oc2c1C
> 48.7	Cc1ccc(Nc2nc(-c3ccccc3)c(CC(=O)O)s2)cc1
14.2 (≈ 46.8 µM)	Cc1ccc(C)c(S(=O)(=O)NCCCc2ccccc2)c1
6.7 (≈ 23.2 µM)	CN(CC(=O)NC(=O)NC1CCCCC1)c1ccccc1
6.4 (≈ 18.7 µM)	COc1ccc(OC)c(NC(=O)CC2Oc3ccccc3NC2=O)c1 (stereo not given)
33.6 (≈ 86 µM)	CC(C)COc1cccc(C(=O)N(C)CC(=O)Nc2cccc3ccccc23)c1
> 39.7	Cc1cc(=O)c(C(=O)O)nn1-c1ccc(Cl)cc1
0.9 (≈ 2.92 µM)	O=C(NCCOc1ccccc1)C(=O)c1c[nH]c2ccccc12
10.9 (≈ 38.5 µM)	CCc1cccc(C)c1NC(=O)CCOc1ccccc1
26.9 (≈ 79.7 µM)	CCCCCNC(=O)c1ccc2c(c1)ncn2-c1ccc(OC)cc1

solubility kinetic [µg/mL]	Compound
20.2 (≈ 75 µM)	Cc1ccc(NC(=O)CCOc2ccccc2)c(C)c1
> 49	O=C(CN1CCOCC1)N1c2ccccc2Sc2ccccc21
> 30.6	Nc1cccnc1Oc1ccccc1F
> 45.7	Cc1ccnc(NC(=O)CCS(=O)(=O)c2ccccc2)c1
> 62.8	CCOC(=O)c1c(C)[nH]c(C)c1C(=O)COC(=O)[C@@H](NC(=O)c1ccco1)C(C)C
20.4 (≈ 58.9 µM)	Cc1cccc(C)c1-n1c(=O)n(Cc2ccccc2)c(=O)c2[nH]cnc21
11 (≈ 42.3 µM)	COc1ccc(C)cc1NC(=O)NCc1ccco1
< 0.7	Clc1ccccc1Sc1ccc(-c2ccccn2)s1
7.7 (≈ 22.6 µM)	Cc1cc(NC(=O)CSc2nc3ccccc3n2CCC#N)no1
> 46.9	Cc1ccc(C)c(NC(=O)CN(C)C(=O)/C=C/c2ccco2)c1
> 50.8	CC(C)=C(NC(=O)c1ccccc1)C(=O)Nc1cccc(C(=O)O)c1
> 48.8	CN1CCN(CC(=O)Nc2ccccc2Oc2ccccc2)CC1
1.8 (≈ 6.22 µM)	Cc1cccc(NC(=O)COC(=O)c2cccs2)c1C
47.5	CCCCNC1c2ccccc2C(=O)N1Cc1ccccc1.Cl (stereo not given)
4.8 (≈ 14.4 µM)	CNc1snc(C)c1C(=O)OC(C)C(=O)Nc1cccc(C)c1 (stereo not given)
41.6 (≈ 145 µM)	CC(CCc1ccccc1)NC(=O)c1ccccc1Cl (stereo not given)
14.6 (≈ 45 µM)	O=C(COc1ncnc2ccccc12)Nc1ccccc1[N+](=O)[O-]
